Results reported in the supplement of paper PMC7214452.

Assays:
Assay in all cases: normalized area under the dose-response curve (viability relative to DMSO control) (fraction); higher = less sensitive (more viable cells)
Conditions in all cases: exposure time not given
AMO1 (cancer type: MM) = system: AMO1 (cancer type: MM)
Method: (§1)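 25 myeloma and 15 non-Hodgkin lymphoma cell lines were exposed to each of 76 drugs as 7-point log dilutions (0.01 nM–10 µM) in duplicate. Viability was read with CellTiter-Glo and normalised to DMSO (0.1%) and staurosporine (10 µM) plate controls. Normalised AUC was calculated by the trapezoidal method relative to the negative control.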

EJM (cancer type: MM) = system: EJM (cancer type: MM)
Method: as §1

FR4 (cancer type: MM) = system: FR4 (cancer type: MM)
Method: as §1

[1] = system: Granta-519 (cancer type: Mantle)
Method: as §1

[2] = system: HuT 78 (cancer type: TCL)
Method: as §1

JJN3 (cancer type: MM) = system: JJN3 (cancer type: MM)
Method: as §1

[3] = system: JVM2 (cancer type: Mantle)
Method: as §1

[4] = system: JeKo-1 (cancer type: Mantle)
Method: as §1

KMS11 (cancer type: MM) = system: KMS11 (cancer type: MM)
Method: as §1

[5] = system: KMS12PE (cancer type: MM)
Method: as §1

KMS18 (cancer type: MM) = system: KMS18 (cancer type: MM)
Method: as §1

KMS26 (cancer type: MM) = system: KMS26 (cancer type: MM)
Method: as §1

[6] = system: KMS28BM (cancer type: MM)
Method: as §1

[7] = system: KMS28PE (cancer type: MM)
Method: as §1

KMS34 (cancer type: MM) = system: KMS34 (cancer type: MM)
Method: as §1

[8] = system: Karpas-299 (cancer type: TCL)
Method: as §1

L363 (cancer type: MM) = system: L363 (cancer type: MM)
Method: as §1

LP1 (cancer type: MM) = system: LP1 (cancer type: MM)
Method: as §1

MM1.R (cancer type: MM) = system: MM1.R (cancer type: MM)
Method: as §1

MM1.S (cancer type: MM) = system: MM1.S (cancer type: MM)
Method: as §1

[9] = system: Mino (cancer type: Mantle)
Method: as §1

My-La (cancer type: TCL) = system: My-La (cancer type: TCL)
Method: as §1

[10] = system: NCI-H929 (cancer type: MM)
Method: as §1

[11] = system: OCI-LY1 (cancer type: DLBCL)
Method: as §1

[12] = system: OCI-LY19 (cancer type: DLBCL)
Method: as §1

[13] = system: OCI-LY3 (cancer type: DLBCL)
Method: as §1

[14] = system: OCI-MY5 (cancer type: MM)
Method: as §1

[15] = system: OCI-MY5/CRBN (cancer type: MM)
Method: as §1

[16] = system: OCI-MY5/Vec (cancer type: MM)
Method: as §1

[17] = system: OCI-MY7 (cancer type: MM)
Method: as §1

OPM2 (cancer type: MM) = system: OPM2 (cancer type: MM)
Method: as §1

[18] = system: RPMI 8226 (cancer type: MM)
Method: as §1

SKMM2 (cancer type: MM) = system: SKMM2 (cancer type: MM)
Method: as §1

[19] = system: SR-786 (cancer type: TCL)
Method: as §1

[20] = system: SU-DHL1 (cancer type: TCL)
Method: as §1

[21] = system: SU-DHL2 (cancer type: DLBCL)
Method: as §1

[22] = system: SU-DHL6 (cancer type: DLBCL)
Method: as §1

Se-Ax (cancer type: TCL) = system: Se-Ax (cancer type: TCL)
Method: as §1

U266 (cancer type: MM) = system: U266 (cancer type: MM)
Method: as §1

XG2 (cancer type: MM) = system: XG2 (cancer type: MM)
Method: as §1

Row | SMILES | normalized area under the dose-response curve (AMO1 (cancer type: MM)) | normalized area under the dose-response curve (EJM (cancer type: MM)) | normalized area under the dose-response curve (FR4 (cancer type: MM)) | normalized area under the dose-response curve [1] | normalized area under the dose-response curve [2] | normalized area under the dose-response curve (JJN3 (cancer type: MM)) | normalized area under the dose-response curve [3] | normalized area under the dose-response curve [4] | normalized area under the dose-response curve (KMS11 (cancer type: MM)) | normalized area under the dose-response curve [5] | normalized area under the dose-response curve (KMS18 (cancer type: MM)) | normalized area under the dose-response curve (KMS26 (cancer type: MM)) | normalized area under the dose-response curve [6] | normalized area under the dose-response curve [7] | normalized area under the dose-response curve (KMS34 (cancer type: MM)) | normalized area under the dose-response curve [8] | normalized area under the dose-response curve (L363 (cancer type: MM)) | normalized area under the dose-response curve (LP1 (cancer type: MM)) | normalized area under the dose-response curve (MM1.R (cancer type: MM)) | normalized area under the dose-response curve (MM1.S (cancer type: MM)) | normalized area under the dose-response curve [9] | normalized area under the dose-response curve (My-La (cancer type: TCL)) | normalized area under the dose-response curve [10] | normalized area under the dose-response curve [11] | normalized area under the dose-response curve [12] | normalized area under the dose-response curve [13] | normalized area under the dose-response curve [14] | normalized area under the dose-response curve [15] | normalized area under the dose-response curve [16] | normalized area under the dose-response curve [17] | normalized area under the dose-response curve (OPM2 (cancer type: MM)) | normalized area under the dose-response curve [18] | normalized area under the dose-response curve (SKMM2 (cancer type: MM)) | normalized area under the dose-response curve [19] | normalized area under the dose-response curve [20] | normalized area under the dose-response curve [21] | normalized area under the dose-response curve [22] | normalized area under the dose-response curve (Se-Ax (cancer type: TCL)) | normalized area under the dose-response curve (U266 (cancer type: MM)) | normalized area under the dose-response curve (XG2 (cancer type: MM))
1 | N#CC[C@H](C1CCCC1)n1cc(-c2ncnc3[nH]ccc23)cn1 [Ruxolitinib] | 0.911 | 0.886 | 0.927 | 0.925 | 0.853 | 0.894 | 0.774 | 1.01 | 0.87 | 0.91 | 0.978 | 0.802 | 0.913 | 0.879 | 0.708 | 0.742 | 0.863 | 0.861 | 0.85 | 0.91 | 0.983 | 0.775 | 0.91 | 0.997 | 0.972 | 0.944 | 0.853 | 0.993 | 0.898 | 0.89 | 0.931 | 0.997 | 0.958 | 0.83 | 0.713 | 0.959 | 0.928 | 0.828 | 0.833 | 0.804
2 | O=C(/C=C\n1cnc(-c2cc(C(F)(F)F)cc(C(F)(F)F)c2)n1)NNc1cnccn1 [Selinexor] | 0.182 | 0.389 | 0.703 | 0.705 | 0.227 | 0.468 | 0.407 | 0.43 | 0.126 | 0.47 | 0.446 | 0.42 | 0.62 | 0.41 | 0.313 | 0.553 | 0.153 | 0.446 | 0.23 | 0.18 | 0.507 | 0.469 | 0.25 | 0.634 | 0.38 | 0.643 | 0.151 | 0.105 | 0.0963 | 0.13 | 0.411 | 0.424 | 0.598 | 0.306 | 0.277 | 0.697 | 0.789 | 0.483 | 0.415 | 0.256
3 | CNC(=O)c1cc(Oc2ccc(NC(=O)Nc3ccc(Cl)c(C(F)(F)F)c3)cc2)ccn1 [Sorafenib] | 0.578 | 0.663 | 0.594 | 0.877 | 0.704 | 0.435 | 0.747 | 0.922 | 0.535 | 0.6 | 0.471 | 0.634 | 0.611 | 0.752 | 0.239 | 0.812 | 0.578 | 0.495 | 0.61 | 0.57 | 0.872 | 0.836 | 0.57 | 0.913 | 0.873 | 0.955 | 0.459 | 0.589 | 0.499 | 0.59 | 0.539 | 0.546 | 0.56 | 0.824 | 0.576 | 0.901 | 0.937 | 0.655 | 0.45 | 0.543
4 | CCN(CC)CCNC(=O)c1c(C)[nH]c(/C=C2\C(=O)Nc3ccc(F)cc32)c1C [Sunitinib] | 0.519 | 0.587 | 0.681 | 0.863 | 0.536 | 0.638 | 0.605 | 0.729 | 0.641 | 0.7 | 0.665 | 0.714 | 0.739 | 0.519 | 0.459 | 0.722 | 0.648 | 0.651 | 0.61 | 0.58 | 0.761 | 0.772 | 0.56 | 0.818 | 0.794 | 0.892 | 0.576 | 0.816 | 0.82 | 0.72 | 0.56 | 0.538 | 0.734 | 0.652 | 0.541 | 0.8 | 0.875 | 0.69 | 0.698 | 0.46
5 | CO[C@H]1C[C@@H]2CC[C@@H](C)[C@@](O)(O2)C(=O)C(=O)N2CCCC[C@H]2C(=O)O[C@H]([C@H](C)C[C@@H]2CC[C@@H](OC(=O)C(C)(CO)CO)[C@H](OC)C2)CC(=O)[C@H](C)/C=C(\C)[C@@H](O)[C@@H](OC)C(=O)[C@H](C)C[C@H](C)/C=C/C=C/C=C/1C [Temsirolimus] | 0.695 | 0.823 | 0.789 | 0.695 | 0.722 | 0.774 | 0.559 | 0.744 | 0.752 | 0.69 | 0.754 | 0.978 | 0.859 | 0.696 | 0.559 | 0.585 | 0.7 | 0.746 | 0.68 | 0.63 | 0.691 | 0.764 | 0.74 | 0.685 | 0.697 | 0.648 | 0.775 | 0.772 | 0.884 | 0.79 | 0.749 | 0.763 | 0.912 | 0.745 | 0.71 | 0.576 | 0.72 | 0.663 | 0.752 | 0.725
6 | C[C@@H]1CCN(C(=O)CC#N)C[C@@H]1N(C)c1ncnc2[nH]ccc12 [Tofacitinib] | 0.901 | 0.941 | 1 | 0.94 | 0.879 | 0.966 | 0.931 | 1.05 | 0.933 | 1.01 | 1.01 | 0.957 | 0.962 | 0.936 | 0.89 | 0.891 | 0.904 | 0.858 | 0.92 | 0.85 | 0.957 | 0.877 | 0.92 | 0.994 | 0.996 | 0.952 | 0.944 | 0.97 | 1.02 | 0.95 | 0.938 | 1 | 0.978 | 0.856 | 0.97 | 0.93 | 0.969 | 0.929 | 0.874 | 0.838
